Reference: ChEMBL document CHEMBL1154822, “Synthesis and antiproliferative activity of 7-azaindirubin-3'-oxime, a 7-aza isostere of the natural indirubin pharmacophore” (J Nat Prod, 2009)

How the values were obtained:
Assay type in all cases: functional
[1] = system: SW-620; assay: Cytotoxicity against human SW620 cells assessed as cell growth at 10 uM after 1 to 11 days by MTT assay; conditions: read-out: Activity
[2] = system: MCF7; assay: Cytotoxicity against human MCF7 cells assessed as cell growth at 100 uM after 1 to 11 days by MTT assay; conditions: read-out: Activity
[3] = system: SK-MEL-28; assay: Cytotoxicity against human SK-MEL-28 cells assessed as cell growth at 0.1 uM after 1 to 11 days by MTT assay; conditions: read-out: Activity
[4] = system: SF-539; assay: Cytotoxicity against human SF539 cells assessed as cell growth at 10 uM after 1 to 11 days by MTT assay; conditions: read-out: Activity
[5] = system: UACC-62; assay: Cytotoxicity against human UACC62 cells assessed as cell growth at 100 uM after 1 to 11 days by MTT assay; conditions: read-out: Activity
[6] = system: UO-31; assay: Cytotoxicity against human UO31 cells after 1 to 11 days by MTT assay
[7] = system: Malme-3M; assay: Cytotoxicity against human MALME-3M cells after 1 to 11 days by MTT assay
[8] = system: K562; assay: Cytotoxicity against human K562 cells assessed as cell growth at 1 mM after 1 to 11 days by MTT assay; conditions: read-out: Activity
[9] = system: HOP-62; assay: Cytotoxicity against human HOP62 cells after 1 to 11 days by MTT assay
[10] = system: SK-OV-3; assay: Cytotoxicity against human SKOV3 cells after 1 to 11 days by MTT assay
[11] = system: HCT-15; assay: Cytotoxicity against human HCT15 cells after 1 to 11 days by MTT assay
[12] = system: NCI-H522; assay: Cytotoxicity against human NCI-H522 cells assessed as cell growth at 1 mM after 1 to 11 days by MTT assay; conditions: read-out: Activity
[13] = system: HCT-15; assay: Cytotoxicity against human HCT15 cells assessed as cell growth at 100 uM after 1 to 11 days by MTT assay; conditions: read-out: Activity
[14] = system: BT-549; assay: Cytotoxicity against human BT549 cells assessed as cell growth at 100 uM after 1 to 11 days by MTT assay; conditions: read-out: Activity
[15] = system: SK-MEL-5; assay: Cytotoxicity against human SK-MEL-5 cells assessed as cell growth at 1 uM after 1 to 11 days by MTT assay; conditions: read-out: Activity
[16] = system: DU-145; assay: Cytotoxicity against human DU145 cells after 1 to 11 days by MTT assay
[17] = system: OVCAR-3; assay: Cytotoxicity against human OVCAR-3 cells after 1 to 11 days by MTT assay
[18] = system: Malme-3M; assay: Cytotoxicity against human MALME-3M cells assessed as cell growth at 0.1 uM after 1 to 11 days by MTT assay; conditions: read-out: Activity
[19] = system: MCF7; assay: Cytotoxicity against human MCF7 cells assessed as cell growth at 1 uM after 1 to 11 days by MTT assay; conditions: read-out: Activity
[20] = system: SK-MEL-28; assay: Cytotoxicity against human SK-MEL-28 cells assessed as cell growth at 1 uM after 1 to 11 days by MTT assay; conditions: read-out: Activity
[21] = system: HL-60(TB); assay: Cytotoxicity against human HL-60(TB) cells assessed as cell growth at 10 uM after 1 to 11 days by MTT assay; conditions: read-out: Activity
[22] = system: DU-145; assay: Cytotoxicity against human DU145 cells assessed as cell growth at 1 mM after 1 to 11 days by MTT assay; conditions: read-out: Activity
[23] = system: Malme-3M; assay: Cytotoxicity against human MALME-3M cells assessed as cell growth at 100 uM after 1 to 11 days by MTT assay; conditions: read-out: Activity
[24] = system: SR; assay: Cytotoxicity against human SR cells assessed as cell growth at 10 uM after 1 to 11 days by MTT assay; conditions: read-out: Activity
[25] = system: SK-OV-3; assay: Cytotoxicity against human SKOV3 cells assessed as cell growth at 1 uM after 1 to 11 days by MTT assay; conditions: read-out: Activity
[26] = system: K562; assay: Cytotoxicity against human K562 cells assessed as cell growth at 100 uM after 1 to 11 days by MTT assay; conditions: read-out: Activity
[27] = system: MDA-MB-231; assay: Cytotoxicity against human MDA-MB-231 cells assessed as cell growth at 100 uM after 1 to 11 days by MTT assay; conditions: read-out: Activity
[28] = system: UACC-257; assay: Cytotoxicity against human UACC257 cells after 1 to 11 days by MTT assay
[29] = system: SF-539; assay: Cytotoxicity against human SF539 cells assessed as cell growth at 1 mM after 1 to 11 days by MTT assay; conditions: read-out: Activity
[30] = system: HCC 2998; assay: Cytotoxicity against human HCC2998 cells assessed as cell growth at 0.1 uM after 1 to 11 days by MTT assay; conditions: read-out: Activity
[31] = system: ACHN; assay: Cytotoxicity against human ACHN cells assessed as cell growth at 100 uM after 1 to 11 days by MTT assay; conditions: read-out: Activity
[32] = system: BT-549; assay: Cytotoxicity against human BT549 cells assessed as cell growth at 1 mM after 1 to 11 days by MTT assay; conditions: read-out: Activity
[33] = system: COLO 205; assay: Cytotoxicity against human COLO205 cells assessed as cell growth at 100 uM after 1 to 11 days by MTT assay; conditions: read-out: Activity
[34] = system: HOP-92; assay: Cytotoxicity against human HOP92 cells assessed as cell growth at 1 uM after 1 to 11 days by MTT assay; conditions: read-out: Activity
[35] = system: HT-29; assay: Cytotoxicity against human HT-29 cells assessed as cell growth at 1 uM after 1 to 11 days by MTT assay; conditions: read-out: Activity
[36] = system: OVCAR-5; assay: Cytotoxicity against human OVCAR5 cells assessed as cell growth at 0.1 uM after 1 to 11 days by MTT assay; conditions: read-out: Activity
[37] = system: NCI-H522; assay: Cytotoxicity against human NCI-H522 cells assessed as cell growth at 100 uM after 1 to 11 days by MTT assay; conditions: read-out: Activity
[38] = system: TK-10; assay: Cytotoxicity against human TK10 cells after 1 to 11 days by MTT assay
[39] = system: OVCAR-3; assay: Cytotoxicity against human OVCAR-3 cells assessed as cell growth at 10 uM after 1 to 11 days by MTT assay; conditions: read-out: Activity
[40] = system: KM12; assay: Cytotoxicity against human KM12 cells after 1 to 11 days by MTT assay
[41] = system: KM12; assay: Cytotoxicity against human KM12 cells assessed as cell growth at 0.1 uM after 1 to 11 days by MTT assay; conditions: read-out: Activity
[42] = system: UO-31; assay: Cytotoxicity against human UO31 cells assessed as cell growth at 10 uM after 1 to 11 days by MTT assay; conditions: read-out: Activity
[43] = system: NCI-H23; assay: Cytotoxicity against human NCI-H23 cells assessed as cell growth at 1 uM after 1 to 11 days by MTT assay; conditions: read-out: Activity
[44] = read-out: LC50 (the source's name)

Question: Which growth at 10 µM [1] does the source give for `O=C1Nc2ncccc2/C1=C1/Nc2ccccc2/C1=N\O` here?
Answer: 98%

Question: And the growth at 100 µM [2]?
Answer: 52%

Question: What about the growth at 0.1 µM [3] of the same compound?
Answer: 88%

Question: And the growth at 10 µM [4]?
Answer: 87%

Question: And the growth at 100 µM [5]?
Answer: 27%

Question: What about the GI50 [6] of the same compound?
Answer: 1.58 µM

Question: And the TGI [6]?
Answer: > 100 µM

Question: What about the CC50 [6, 44] of the same compound?
Answer: > 100 µM

Question: And the GI50 [7]?
Answer: 3.36 µM

Question: And the TGI [7]?
Answer: 172 µM

Question: And the CC50 [7, 44]?
Answer: > 100 µM

Question: And the growth at 1000 µM [8]?
Answer: 25%

Question: And the GI50 [9]?
Answer: > 100 µM

Question: And the TGI [9]?
Answer: > 100 µM

Question: And the CC50 [9, 44]?
Answer: > 100 µM

Question: And the GI50 [10]?
Answer: 1.79 µM

Question: What about the CC50 [10, 44] of the same compound?
Answer: > 100 µM

Question: What about the GI50 [11] of the same compound?
Answer: 3.67 µM

Question: What about the TGI [11] of the same compound?
Answer: > 100 µM

Question: And the CC50 [11, 44]?
Answer: > 100 µM

Question: And the growth at 1000 µM [12]?
Answer: 50%

Question: And the growth at 100 µM [13]?
Answer: 27%

Question: What about the growth at 100 µM [14] of the same compound?
Answer: 43%

Question: What about the growth at 1 µM [15] of the same compound?
Answer: 98%

Question: What about the GI50 [16] of the same compound?
Answer: 5.69 µM

Question: What about the TGI [16] of the same compound?
Answer: > 100 µM

Question: And the CC50 [16, 44]?
Answer: > 100 µM

Question: What about the GI50 [17] of the same compound?
Answer: > 100 µM

Question: And the TGI [17]?
Answer: > 100 µM

Question: And the CC50 [17, 44]?
Answer: > 100 µM

Question: What about the growth at 0.1 µM [18] of the same compound?
Answer: 94%

Question: And the growth at 1 µM [19]?
Answer: 91%

Question: What about the growth at 1 µM [20] of the same compound?
Answer: 87%

Question: What about the growth at 10 µM [21] of the same compound?
Answer: 80%

Question: What about the growth at 1000 µM [22] of the same compound?
Answer: 35%

Question: And the growth at 100 µM [23]?
Answer: 13%

Question: What about the growth at 10 µM [24] of the same compound?
Answer: 147%

Question: What about the growth at 1 µM [25] of the same compound?
Answer: 93%

Question: What about the growth at 100 µM [26] of the same compound?
Answer: 39%

Question: And the growth at 100 µM [27]?
Answer: 40%

Question: What about the GI50 [28] of the same compound?
Answer: > 100 µM

Question: What about the TGI [28] of the same compound?
Answer: > 100 µM

Question: And the CC50 [28, 44]?
Answer: > 100 µM

Question: And the growth at 1000 µM [29]?
Answer: 52%

Question: And the growth at 0.1 µM [30]?
Answer: 93%

Question: What about the growth at 100 µM [31] of the same compound?
Answer: 21%

Question: What about the growth at 1000 µM [32] of the same compound?
Answer: 30%

Question: And the growth at 100 µM [33]?
Answer: 59%

Question: And the growth at 1 µM [34]?
Answer: 81%

Question: What about the growth at 1 µM [35] of the same compound?
Answer: 98%

Question: What about the growth at 0.1 µM [36] of the same compound?
Answer: 89%

Question: And the growth at 100 µM [37]?
Answer: 61%

Question: What about the GI50 [38] of the same compound?
Answer: 9.72 µM

Question: What about the TGI [38] of the same compound?
Answer: > 100 µM

Question: And the CC50 [38, 44]?
Answer: > 100 µM

Question: And the growth at 10 µM [39]?
Answer: 80%

Question: What about the GI50 [40] of the same compound?
Answer: 0.77 µM

Question: What about the TGI [40] of the same compound?
Answer: > 100 µM

Question: What about the CC50 [40, 44] of the same compound?
Answer: > 100 µM

Question: What about the growth at 0.1 µM [41] of the same compound?
Answer: 95%

Question: What about the growth at 10 µM [42] of the same compound?
Answer: 62%

Question: And the growth at 1 µM [43]?
Answer: 90%
